Legend:
Assay in all cases: relative viability (nuclei count vs DMSO), 5 days (fraction); higher = more cells survive
Sulindac + OSI-027 = compound: CC1=C(CC(=O)O)c2cc(F)ccc2/C1=C\c1ccc([S+](C)[O-])cc1 [Sulindac] + COc1cccc2cc(-c3nc([C@H]4CC[C@H](C(=O)O)CC4)n4ncnc(N)c34)[nH]c12 [OSI-027] (partner 0.5 µM)
Method in brief: (§1)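 Relative viability is defined as nuclei in treated wells over nuclei in vehicle wells. Duplicate plates were run and medians reported. Lung cancer cell lines in 1536-well plates were dosed by pin tool one day after seeding, with one drug or with a fixed anchor-drug dose plus five library-drug doses (not always all listed) in √10 steps, and nuclei were counted after 5 days.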

Sulindac + Decitabine = compound: CC1=C(CC(=O)O)c2cc(F)ccc2/C1=C\c1ccc([S+](C)[O-])cc1 [Sulindac] + Nc1ncn([C@H]2C[C@H](O)[C@@H](CO)O2)c(=O)n1 [Decitabine] (partner 2 µM)
Method in brief: as §1

[1] = compound: CN[C@@H]1C[C@H]2O[C@@](C)([C@@H]1OC)n1c3ccccc3c3c4c(c5c6ccccc6n2c5c31)C(=O)NC4 [Staurosporine] + CC1(C)CCC(c2ccc(Cl)cc2)=C(CN2CCN(c3ccc(C(=O)NS(=O)(=O)c4ccc(N[C@H](CCN5CCOCC5)CSc5ccccc5)c(S(=O)(=O)C(F)(F)F)c4)cc3)CC2)C1 [Navitoclax] (partner 0.5 µM)
Method in brief: as §1

Staurosporine + AZD7762 = compound: CN[C@@H]1C[C@H]2O[C@@](C)([C@@H]1OC)n1c3ccccc3c3c4c(c5c6ccccc6n2c5c31)C(=O)NC4 [Staurosporine] + NC(=O)Nc1cc(-c2cccc(F)c2)sc1C(=O)N[C@H]1CCCNC1 [AZD7762] (partner 0.2 µM)
Method in brief: as §1

Cell Line	relative viability (Sulindac + OSI-027; first compound 0.08 µM)	relative viability (Sulindac + OSI-027; first compound 0.253 µM)	relative viability (Sulindac + OSI-027; first compound 2.53 µM)	relative viability (Sulindac + OSI-027; first compound 8 µM)	relative viability (Sulindac + Decitabine; first compound 0.08 µM)	relative viability (Sulindac + Decitabine; first compound 0.253 µM)	relative viability (Sulindac + Decitabine; first compound 0.8 µM)	relative viability (Sulindac + Decitabine; first compound 2.53 µM)	relative viability (Sulindac + Decitabine; first compound 8 µM)	relative viability ([1]; first compound 0.005 µM)	relative viability ([1]; first compound 0.01581 µM)	relative viability ([1]; first compound 0.05 µM)	relative viability ([1]; first compound 0.1581 µM)	relative viability ([1]; first compound 0.5 µM)	relative viability (Staurosporine + AZD7762; first compound 0.005 µM)	relative viability (Staurosporine + AZD7762; first compound 0.01581 µM)	relative viability (Staurosporine + AZD7762; first compound 0.05 µM)	relative viability (Staurosporine + AZD7762; first compound 0.1581 µM)	relative viability (Staurosporine + AZD7762; first compound 0.5 µM)	relative viability (Sulindac + OSI-027; first compound 0.8 µM)
NCI-H1651	0.783	0.698	0.801	0.85	0.748	0.702	0.578	0.568	0.617	0.897	0.559	0.305	0.112	0.0765	0.522	0.352	0.295	0.219	0.195	–
HARA	0.553	0.549	0.488	0.602	0.704	0.492	0.398	0.46	0.521	–	0.538	0.37	0.157	0.161	0.278	0.169	0.262	–	0.029	0.447
NCI-H1944	0.424	0.43	0.421	0.412	0.489	0.44	0.412	0.426	0.449	1.08	–	0.763	0.562	0.359	0.349	0.25	0.275	0.177	0.192	0.353
NCI-H2405	0.664	0.711	0.602	0.685	0.803	0.723	0.713	0.749	0.823	0.132	0.061	0.0985	0.0939	0.0834	0.239	0.141	0.112	–	0.0865	0.736
201T	0.746	0.802	0.727	0.879	0.879	0.874	0.818	0.848	0.928	1.24	1.18	1.06	0.983	0.761	0.599	–	0.498	0.579	0.342	0.744
RERF-LC-KJ	0.681	0.671	0.569	0.587	0.667	0.706	0.608	0.63	0.751	1.14	0.665	0.479	0.244	0.236	1.07	0.804	0.436	0.24	0.177	0.551
NCI-H1734	0.663	0.636	0.583	0.711	0.524	0.522	0.435	0.523	0.496	0.921	0.363	0.195	0.105	0.0733	0.539	0.242	0.194	0.0987	0.0915	–
PC-14	1.3	1.2	0.886	1.09	0.25	0.274	0.223	0.215	0.257	0.901	0.562	0.887	0.0852	0.053	0.302	0.0766	0.0421	0.0892	0.0415	–
NCI-H1915	0.764	0.688	0.678	0.625	0.229	0.268	0.266	0.261	0.27	0.829	–	0.449	0.369	0.26	0.707	0.495	0.346	0.21	0.09	–
ChaGo-K-1	0.68	0.644	0.57	0.61	0.601	0.484	0.466	0.515	0.523	0.926	–	0.79	0.29	0.27	0.912	–	0.615	0.148	0.135	0.398
HOP-62	0.825	0.976	0.946	0.91	0.214	0.222	0.229	0.217	0.246	0.957	0.528	0.152	0.121	0.104	0.358	0.128	–	0.126	0.0794	–
NCI-H1975	0.93	0.762	0.759	0.835	0.594	0.413	0.352	0.394	0.36	0.611	0.297	0.286	0.215	0.132	0.536	0.402	0.357	0.261	0.182	0.489
BEN	0.312	0.271	0.321	0.301	0.745	0.845	0.697	0.685	0.814	0.0665	0.0904	0.0865	0.0456	0.042	0.946	0.776	0.761	0.316	0.294	0.29
NCI-H1437	1.01	1	0.811	0.96	0.667	0.619	0.547	0.591	0.568	0.982	0.865	0.695	0.189	0.101	1.02	0.686	0.78	0.574	0.219	0.767
EMC-BAC-2	0.375	0.407	0.371	0.473	0.994	1	0.888	0.934	1.08	1.1	0.777	0.172	0.153	0.127	0.352	0.215	0.203	0.262	0.192	0.311
LXF-289	0.829	0.863	0.753	0.844	0.404	0.416	0.372	0.381	0.452	0.944	–	0.263	0.0806	0.14	0.903	0.157	0.298	0.0835	0.0894	0.749

— the supplement of paper PMC10307832
